The values that follow are results of earlier work, collected in US11053255B2, “Synthesis of mahanine and related compounds” (Georgetown University, priority 2015, dated 2021).

Series [1] relates to cyclin D1. The settings on record: prostate cancer cells.
Series [2] relates to androgen-responsive, LNCaP prostate cancer cells. The settings on record: in vitro.
The test system of series [3] is androgen-independent, PC3 prostate cancer cells. Conditions: in vitro.
Series [4] relates to RASSF1A. Conditions: human prostate cancer cells, dose-dependent.

In the case of `CC(C)=CCC[C@]1(C)C=Cc2c(c(C)cc3c2[nH]c2cc(O)ccc23)O1` [mahanine, (R)-3,5-dimethyl-3-(4-methylpent-3-en-1-yl)-3,11-dihydropyrano[3,2-a]carbazol-9-ol], in series [1], the “cyclin D1 transcriptional activity” value is “represses cyclin D1 transcriptional activity”. The growth inhibition result in series [2] and in series [3] was “inhibits growth” in each case. The induction of apoptosis result in series [2] and in series [3] was “induces apoptosis” throughout. Also, in series [4], the “expression of RASSF1A” value is “induces the expression of RASSF1A”.
